Laboratory results from patent publication US20260123631A1, “NATURAL PORPHIN SALT AND USE THEREOF AS PLANT GROWTH REGULATOR AND PLANT IMMUNITY INDUCER” (NANJING BOSTEC BIOLOGICAL ENGINEERING CO., LTD, priority 2022, published 2026).

Tests used:
[1] = Dilution and pH determination for sample solutions; assay type: physicochemical
Protocol: Method: 0.2500 g of a sample was accurately weighed and added to a 25 mL volumetric flask, dissolved with purified water, and diluted to a specified scale to prepare a 1.00% (10,000.0 ppm) initial solution. The initial solution was diluted with purified water in different ratios to prepare a series of solutions with a concentration of 1,000.0 ppm to 0.1 ppm. A pH value of each sample was determined three times.

[2] = Stability of sample solutions in the dark/under light; assay type: physicochemical; details: under light 30,000 lux, salts in water, acidic reference in 30% to 50% ethanol
Summary of the method: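 Salt in water, or acidic reference in 30–50% aqueous ethanol, at about 10 ppm; UV absorbance scanned 200–800 nm at 0, 1, 2, 3 h, stored at 25° C dark or under 30,000 lux light. Relative content = max-peak absorbance at each time divided by 0 h value (100%).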

chlorophyllase = test: In vitro chlorophyllase-inhibiting activity test; assay type: biochemical, mung bean; details: substrate chlorophyll 120 ppm, sample 0.3 ppm to 30.0 ppm
Protocol: A chlorophyllase inhibition rate of a salt sample solution at each concentration was determined, and an IC50 value for a chlorophyllase inhibition activity of a salt sample was calculated.

mung bean seedlings = test: Inducing adventitious roots from hypocotyls of mung bean; assay type: in vivo; details: day 7
Protocol: Test solution preparation: 8 mL of a commercially-available STANLEY universal hydroponic nutrient solution was taken and diluted with tap water to 3,200 mL (400-fold dilution) to produce a dilute nutrient solution. An appropriate amount of each of salt samples such as protoporphyrin disodium and potassium chlorhematin was weighed and prepared with the dilute nutrient solution into 0.010 ppm and 0.1 ppm sample test solutions, and 150 mL of each test solution was taken. 150 mL of the dilute nutrient solution was taken as a blank control. The test solutions and the control solution were placed in brown bottles, and the brown bottles were sealed with a black film. Mung bean seedlings with uniform growth and a seedling height of 7 cm to 8 cm were selected, and cut at 3 cm below a first true leaf node. 8 mung bean seedlings were inserted into each bottle (with roots removed) to make lower radicles soaked in a solution. Mung bean seedlings were treated at room temperature of 20° C. to 25° C. for 7 d in total, during which the solution was changed every 2 d. On day 2 to day 3 of the treatment, there was a significant difference. On day 7, the observation and determination were conducted. An average adventitious root number and an average total adventitious root length for each seedling were calculated, and results were shown in the following table: […]

tomato = test: Spraying on tomato to increase a yield; assay type: in vivo, tomato (Jinfan 1615); details: 0.05 ppm sprayed twice; for Yield increase rate: versus control
Protocol: During cultivation, flat planting, plastic mulching, seedling transplanting, and pressurized drip irrigation were adopted. On April 29, seedlings were transplanted at 2,600 seedlings/mu. An area of 20 mu was adopted for each of control and treatment groups. Each treatment region was sprayed with a sodium iron chlorophyllin solution at a concentration of 0.05 ppm twice in an early flowering stage (May 22, 2021) and a fruit setting stage (Jun. 5, 2021), respectively.
The harvesting was conducted on August 3. During the harvesting, 5 plants were continuously and randomly selected from each treatment for sampling statistics.

[3] = system: verticillium wilt in cotton; test: Spraying on cotton to control verticillium wilt; assay type: in vivo, cotton (Xinluzhong 66)
From the text: Method: A total of five treatments were set, including: the sample in three concentrations; the positive control; and the blank control. An agent was sprayed once at each of a seedling stage (May 28) and a bud stage (June 28) of cotton, where a concentration was adjusted each time. Concentration changes of the sodium iron chlorophyllin and controls (first to fifth treatments) were as follows: [table] […] A three-point survey method was adopted for each treatment, and 100 plants were selected at each point. A control effect was surveyed.

cotton = test: Cotton yield in the verticillium wilt experiment; assay type: in vivo, cotton (Xinluzhong 66)
Protocol: Method: A total of five treatments were set, including: the sample in three concentrations; the positive control; and the blank control. An agent was sprayed once at each of a seedling stage (May 28) and a bud stage (June 28) of cotton, where a concentration was adjusted each time. Concentration changes of the sodium iron chlorophyllin and controls (first to fifth treatments) were as follows:
The harvesting was conducted on Nov. 15, 2020. […] The growth of cotton was first counted. Then, the harvesting was conducted, and a yield increase rate was calculated.

rice = test: Spraying on flooded rice; assay type: in vivo, rice (Nanjing 9108); details: 10.0 ppm solution, 1.2 L/mu (12.0 mg/mu), aerial application after 10 d waterlogging; moisture content 16.5%
Protocol: Waterlogging: On Jul. 10, 2021, an area of 20 mu was flooded. The floodwater receded on July 20. During the 10 d of waterlogging, the plant was totally submerged for nearly 4 d and was mostly submerged for nearly 6 d. After the floodwater receded, rice plants were weak and had yellow and drooping leaves.
Method: A 10.0 ppm sodium iron chlorophyllin solution was sprayed on 10 mu of land through aerial application at an average amount of 1.2 L/mu (sodium iron chlorophyllin amount: 12.0 mg/mu). 10 mu of land was taken as a blank control (0 mg/mu).

[4] = First treatment (0.167 ppm seedling stage, 0.500 ppm bud stage), first survey (June 28)
[5] = First treatment (0.167 ppm seedling stage, 0.500 ppm bud stage), second survey (August 10)
[6] = Second treatment (0.500 ppm seedling stage, 0.188 ppm bud stage), first survey (June 28)
[7] = Second treatment (0.500 ppm seedling stage, 0.188 ppm bud stage), second survey (August 10)
[8] = Third treatment (1.000 ppm seedling stage, 0.833 ppm bud stage), first survey (June 28)
[9] = Third treatment (1.000 ppm seedling stage, 0.833 ppm bud stage), second survey (August 10)
[10] = First treatment (0.167 / 0.500 ppm)
[11] = Second treatment (0.500 / 0.188 ppm)
[12] = Third treatment (1.000 / 0.833 ppm)

sodium iron chlorophyllin
pH ([1]; 0.1 ppm in purified water): (6.68)
pH ([1]; 1.0 ppm in purified water): (6.95)
pH ([1]; 10.0 ppm in purified water): (7.14)
pH ([1]; 20.0 ppm in purified water): (7.52)
pH ([1]; 30.0 ppm in purified water): (7.63)
pH ([1]; 100.0 ppm in purified water): (8.18)
pH ([1]; 1000.0 ppm in purified water): (10.05)
pH ([1]; 10000.0 ppm in purified water): (10.87)
Relative content ([2]; 1 h): 61.61%
Relative content ([2]; 2 h): 54.63%
Relative content ([2]; 3 h): 53.29%
IC50 for chlorophyllase inhibition activity (chlorophyllase): 5.41 ppm
Adventitious root number (mung bean seedlings; 0.01 ppm): 14.51 root/seedling
Total adventitious root length (mung bean seedlings; 0.01 ppm): 20.06 cm/seedling
Adventitious root number (mung bean seedlings; 0.1 ppm): 13.67 root/seedling
Total adventitious root length (mung bean seedlings; 0.1 ppm): 19.40 cm/seedling
Average single-fruit weight (tomato): 51.3 g
Ear number/plant (tomato): 6.9
Green fruit number/plant (tomato): 13.8 fruit
Red fruit number/plant (tomato): 46.4 fruit
Yield per mu (tomato): 6188.8 kg/mu
increase of red-to-green fruit ratio compared with the control (tomato): 5.91%
red-to-green fruit ratio (tomato): 3.36
Yield increase rate (tomato): 27.15%
Yield increase rate (tomato; listed as sodium iron chlorophyllin): more than 27%
Average diseased plant rate [3, 4]: 2.2%
Control effect [3, 4]: 35.29%
Average diseased plant rate [3, 5]: 5.6%
Control effect [3, 5]: 35.63%
Average diseased plant rate [3, 6]: 2.3%
Control effect [3, 6]: 32.35%
Average diseased plant rate [3, 7]: 4.8%
Control effect [3, 7]: 44.83%
Average diseased plant rate [3, 8]: 1.8%
Control effect [3, 8]: 47.06%
Average diseased plant rate [3, 9]: 4.1%
Control effect [3, 9]: 49.42%
Actual seed cotton yield per mu (cotton; [10]): 380.8 kg/mu
Average cotton boll weight (cotton; [10]): 5.2 g
Effective cotton boll number in 0.01 mu (cotton; [10]): 812.0
Yield increase rate (cotton; [10]): 7.94%
Actual seed cotton yield per mu (cotton; [11]): 374.9 kg/mu
Average cotton boll weight (cotton; [11]): 5.3 g
Effective cotton boll number in 0.01 mu (cotton; [11]): 786.1
Actual seed cotton yield per mu (cotton; [12]): 386.9 kg/mu
Average cotton boll weight (cotton; [12]): 5.3 g
Effective cotton boll number in 0.01 mu (cotton; [12]): 812.0
Yield increase rate (cotton; [12]): 9.66%
yield of the treatment field (rice): 720 kg/mu
